From patent US20210147367A1, “CRYSTALLINE FORMS OF A MAGL INHIBITOR” (Lundbeck La Jolla Research Center, Inc., priority 2019, published 2021) come the findings set out here.

What is called IC50 is the concentration that gives 50% inhibition.

Structures are written as SMILES. “Also recorded” adds a separate entry of the source. Read-outs that look alike come from different tables or passages of the source. Where only a bound is given, the exact number is not on record here.

Data set [1] can be described thus: Dynamic vapor sorption (DVS). Format: physicochemical. As to the method: Dynamic vapour sorption (DVS) was measured using SMS DVS advantage 01 changing the relative humidity from 0% RH to 95% RH in steps of 10% RH (5% between 90 and 95% RH). 2 cycles were performed using 4 mg, starting at 30% RH. The weight changes during the sorption/desorption cycles were plotted, allowing for the hygroscopic nature of the sample to be determined.

Data set [2] can be described thus: Differential scanning calorimetry (DSC) with XRPD after heating: relative stability of crystalline forms. It is filed as physicochemical. The conditions noted are these: for solid form after heating (XRPD): heated to 130° C., above the exotherm, prior to melting; for thermodynamic stability relative to other crystalline forms: DSC analysis. Here is the method: X-Ray powder diffractograms were measured on a PANalytical X'Pert PRO X-Ray Diffractometer using CuKα1 radiation (λ=1.5406 Å). The samples were measured in reflection mode in the 2θ-range 3-40 using an X'celerator detector.
Differential Scanning Calorimetry was measured using a TA-Instruments Discovery-DSC calibrated at 5°/min to give the melting point as onset value. About 2 mg of sample is heated 5°/min under nitrogen flow in a closed pan with a pinhole in the lid.
On the technique in general: DSC measures the heat that a sample takes up or gives off during a temperature scan.

In data set [3] the target is T1, MAGL (Mus musculus, UniProt O35678).
T1 construct: from tissue; host or cells: brain of wild-type C57Bl/6J mice
T1 sequence (O35678 1-303): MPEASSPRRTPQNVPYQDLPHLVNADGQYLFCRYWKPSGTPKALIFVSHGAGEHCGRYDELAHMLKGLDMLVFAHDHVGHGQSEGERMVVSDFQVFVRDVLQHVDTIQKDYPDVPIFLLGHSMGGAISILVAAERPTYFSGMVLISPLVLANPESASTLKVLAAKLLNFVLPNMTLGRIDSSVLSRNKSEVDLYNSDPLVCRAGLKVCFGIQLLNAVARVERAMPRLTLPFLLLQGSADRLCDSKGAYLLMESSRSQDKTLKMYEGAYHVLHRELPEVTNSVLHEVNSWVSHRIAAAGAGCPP
The data set is described as follows: MAGL inhibition in mouse brain proteomes from inhibitor treated mice. Format: in vivo. To be noted: 5 mg/kg oral gavage, brain proteome 4 h after administration, C57Bl/6J mice, read-out: MAGL % inh. 5 mg/kg (mouse). As to the method:
(§1) Proteomes (mouse brain membrane fraction or cell lysates for mouse assays; human prefrontal cortex or cell membrane fractions for human assays) (50 μL, 1.0 mg/mL total protein concentration) were preincubated with varying concentrations of inhibitors at 37° C. After 30 min, FP-Rh or HT-01 (1.0 μL, 50 μM in DMSO) was added and the mixture was incubated for another 30 min at 37° C. Reactions were quenched with SDS loading buffer (15 μL-4×) and run on SDS-PAGE. Following gel imaging, serine hydrolase activity was determined by measuring fluorescent intensity of gel bands corresponding to MAGL using ImageJ 1.43u software.
Inhibitors were administered to wild-type C57Bl/6J by oral gavage in a vehicle of polyethylene glycol. Each animal was sacrificed 4 h following administration and brain proteomes were prepared and analyzed according to previously established methods (See Niphakis et al., ACS Chem. Neurosci. 2011 and Long et al. Nat. Chem. Biol. 2009).

Data set [4] concerns the target T2, MAGL (Homo sapiens, UniProt Q99685).
T2 construct: human prefrontal cortex or cell membrane fractions for human assays; from tissue
T2 sequence (Q99685 1-303): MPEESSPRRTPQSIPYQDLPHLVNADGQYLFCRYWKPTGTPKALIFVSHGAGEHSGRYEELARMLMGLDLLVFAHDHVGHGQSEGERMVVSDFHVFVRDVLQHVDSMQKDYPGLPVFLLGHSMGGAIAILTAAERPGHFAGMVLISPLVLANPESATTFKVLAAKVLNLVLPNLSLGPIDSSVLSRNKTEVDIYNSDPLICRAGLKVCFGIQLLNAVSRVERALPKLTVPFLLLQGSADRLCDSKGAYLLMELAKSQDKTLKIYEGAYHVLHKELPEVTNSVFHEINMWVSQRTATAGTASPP
Nature of the data set: In vitro competitive activity-based protein profiling. It is filed as biochemical. Here is the method:
as §1

The nature of data set [5]: Slurry experiments in different solvents. It is filed as physicochemical.

Take `CC(C)(Oc1cc(C(F)(F)F)ccc1CN1CCN(C(=O)OC(C(F)(F)F)C(F)(F)F)CC1)C(=O)O.O` [Compound (I) hydrate, 2-(2-((4-(((1,1,1,3,3,3-hexafluoropropan-2-yl)oxy)carbonyl)piperazin-1-yl)methyl)-5-(trifluoromethyl)phenoxy)-2-methylpropanoic acid hydrate]: in data set [1] (0% RH to 95% RH, 2 cycles), the “behaviour in sorption/desorption cycles” value was “dehydration of the hydrate occurs at low relative humidity”. Further, the “solid state after DVS measurement” value in data set [1] (after 2 cycles 0% RH to 95% RH) is reported as “turned amorphous”.
With `CC(C)(Oc1cc(C(F)(F)F)ccc1CN1CCN(C(=O)OC(C(F)(F)F)C(F)(F)F)CC1)C(=O)O` [Compound (I) form E, 2-(2-((4-(((1,1,1,3,3,3-hexafluoropropan-2-yl)oxy)carbonyl)piperazin-1-yl)methyl)-5-(trifluoromethyl)phenoxy)-2-methylpropanoic acid form E], in data set [2] (listed as Form E), the “solid form after heating (XRPD)” value is reported as “transformed into Compound (I) Form A”.
As for `CC(C)(Oc1cc(C(F)(F)F)ccc1CN1CCN(C(=O)OC(C(F)(F)F)C(F)(F)F)CC1)C(=O)O` [Compound (I), 2-(2-((4-(((1,1,1,3,3,3-hexafluoropropan-2-yl)oxy)carbonyl)piperazin-1-yl)methyl)-5-(trifluoromethyl)phenoxy)-2-methylpropanoic acid], on MAGL [3], the inhibition at 5 mg/kg was not below 75%. In addition, the inhibition at 1 µM on MAGL [4] (1 μM, human proteome, read-out: MAGL % inh. 1 μM (human)) is not below 75%. Also, the IC50 on MAGL [4] (human proteome, read-out: MAGL IC50 (human)) is not above 50 nM; at MAGL [4] (protocol of example 14, read-out: MAGL IC50), not above 50 nM.
Regarding `CC(C)(Oc1cc(C(F)(F)F)ccc1CN1CCN(C(=O)OC(C(F)(F)F)C(F)(F)F)CC1)C(=O)O` [Compound (I) form C, 2-(2-((4-(((1,1,1,3,3,3-hexafluoropropan-2-yl)oxy)carbonyl)piperazin-1-yl)methyl)-5-(trifluoromethyl)phenoxy)-2-methylpropanoic acid form C], the “solid form after heating (XRPD)” value in data set [2] (listed as Compound (I) Form C) was “transformed into Form A”.
In the case of `CC(C)(Oc1cc(C(F)(F)F)ccc1CN1CCN(C(=O)OC(C(F)(F)F)C(F)(F)F)CC1)C(=O)O` [Compound (I) form A, 2-(2-((4-(((1,1,1,3,3,3-hexafluoropropan-2-yl)oxy)carbonyl)piperazin-1-yl)methyl)-5-(trifluoromethyl)phenoxy)-2-methylpropanoic acid form A], the “transformation of solid form in slurry” value in data set [5] (different solvents, temperatures up to 60° C.) is recorded as “did not lead to transformation into Compound (I) Form D”. In addition, the “thermodynamic stability relative to other crystalline forms” value in data set [2] was “the most stable free form up to 60 °C”; in data set [2] (listed as Compound (I) Form A), “thermodynamically more stable than Compound (I) Form C; also recorded: thermodynamically more stable than Compound (I) Form E”.
As to `CC(C)(Oc1cc(C(F)(F)F)ccc1CN1CCN(C(=O)OC(C(F)(F)F)C(F)(F)F)CC1)C(=O)O` [Compound (I) form D, 2-(2-((4-(((1,1,1,3,3,3-hexafluoropropan-2-yl)oxy)carbonyl)piperazin-1-yl)methyl)-5-(trifluoromethyl)phenoxy)-2-methylpropanoic acid form D], in data set [5] (compared with Form A, inferred from slurry experiments), the “temperature above which Compound (I) Form D is the more stable form” value is not below 60 °C. Further, the “thermodynamic stability relative to other crystalline forms” value in data set [2] is on record as “more thermodynamically stable at higher temperatures”; in data set [2] (listed as Compound (I) Form D) it was “more thermodynamically stable at high temperature but less stable at low temperature compared to Compound (I) Form A”.
